{"source": "patent US10046001B2", "about": "“Compositions and methods for reducing intraocular pressure” (UNIVERSITY OF MIAMI, priority 2013, dated 2018)", "system": "normotensive cynomolgus monkeys", "assay": "IOP and slit lamp examination in normotensive cynomolgus monkeys after topical lipid", "type": "in vivo", "description": "Lipids were topically administered in 1 μl volume around ˜1 pm in the afternoon. The right eye was treated with vehicle alone, and the left eye was treated with lipid. The cynomolgus monkeys (n=4) were treated with […] lipid (except C17S1P which was 50 nM) for 5 days. Monkeys were subjected to slit lamp examination and IOP measurement prior to and after treatment. The IOP measured 3-6 hours post-treatment on the fifth day of treatment is depicted as solid bars. The hollow bars are control (vehicle only (5% DMSO)).\nExperimental design: The IOP-reducing activity of six lipids was tested in the eyes of cynomolgus monkeys (n=4 animals for each lipid). Baseline slit lamp biomicroscopic examination (SLE) and IOP for each group of animals was measured prior to topical application of lipids. The SLE and IOP were then measured at 3-6 hours posttreatment. One eye of each monkey received topical application with the lipid suspended in vehicle (1% dimethylsulfoxide (DMSO)), and the contralateral eye was treated with vehicle only. All topical applications contained 10 picomole of lipid (except C17S1P, which was 50 nM). […] The IOP was measured using a minified Goldmann applanation tonometer.", "data": [{"smiles": "CCCCCCCCCCCCCC[C@@H](O)[C@@H](N)COP(=O)(O)O", "note": "[C17 Sphinganine-1-phosphate]", "values": [{"measurement": "IOP reduction", "setting": "topical 10 picomole (C17S1P 50 nM), 5 days, IOP 3-6 hours post-treatment", "result": "reduced IOP significantly"}, {"measurement": "adverse side effects or toxicity", "setting": "topical, slit lamp examination", "result": "without additional adverse side effects or toxicity"}]}]}
